According to patent publication US9775832B2, “Pharmaceutical composition for oral administration” (ASTELLAS PHARMA INC., priority 2014, dated 2017):
In brackets after ≈: the same amount, converted by molar mass. Each block holds one compound with its values, some of them ahead of it.

Legend:
[1] = Measurement of solubility (Experimental Example 3); assay type: physicochemical; conditions: Phosphate buffer, room temperature, shaken 120 minutes
Text: The improved solubility of compound A by amorphization was observed.

physchem = conditions: thermodynamic from solid
[2] = Oral absorption test in dog (Experimental Example 6); assay type: in vivo; conditions: 50 mg of compound A
Procedure: The dogs were made to fast from the evening on the day before the administration (before more than 16 hours from the scheduled administration time) to the final blood collection on the day of the administration (24 hours after the administration). After the end of the final blood collection, food was given in accordance with the feeding amount of the breeding facility (the fasting period was from 24 hours or more to less than 48 hours). Water was not given during a time period from 30 minutes before the administration to 2 hours after the administration, and then, it was free to drink water.

[3] = Measurement of related substances by HPLC after storage in glass bottles (Experimental Example 4); assay type: physicochemical
Procedure: The solid dispersion of Example 1 and the amorphous form of compound A of Example 2 were put into glass bottles, and the bottles were allowed to stand under the predetermined conditions, after being sealed or without being sealed, and the amount of each related substance of compound A was measured by an HPLC method.
The measurement of related substances was carried out in accordance with the following conditions (the following tests for related substances were carried out in a similar fashion.): • As a HPLC column, Unison UK-Phenyl (particle size=3 μm, 4.6 mm (inner diameter)×25 cm, manufactured by Imtakt), or its equivalent, was used, and maintained at 40° C. • As mobile phase A, a mixed solution (4:1) of a perchlorate solution (pH 4.0) and methanol was used. • As mobile phase B, acetonitrile was used. • Sample solutions were prepared by diluting samples with a mixed solution of mobile phase A/mobile phase B (7:3) so that the concentration of compound A became 250 μg/mL. • Related substances were measured using an ultraviolet absorption spectrophotometer (wavelength: 225 nm), in accordance with the gradient program shown in Table 3 below, and at a flow rate in which the retention time of compound A was about 26 minutes. The percentage of the peak area of each related substance was calculated, as a percentage with respect to the total peak area of compound A and its related substances.

[4] = Powder X-ray diffraction test, crystallinity before and after storage (Experimental Example 5); assay type: physicochemical; conditions: at least 70° C. for 9 days, or 40° C., 75% RH for 1 month; FIG. 2
Procedure: The amorphous form of compound A of Example 2 was put into glass bottles, and the bottles were sealed and allowed to stand under the predetermined conditions, and the crystallinity before and after storage was evaluated using a powder X-ray diffraction method. In “40° C., 75% RH for 1 month (opened)”, the storage was carried out under the conditions where the bottle was not sealed.

[5] = glass bottle not sealed (*), 40° C., 75% RH for 1 month
[6] = glass bottle, sealed, 25° C., 60% RH for 1 month
[7] = glass bottle, sealed, 40° C., 75% RH for 1 month
[8] = glass bottle, sealed, 70° C. for 9 days

Solubility ([1]; pH 6.8, 0.10% Sodium lauryl sulfate, listed as Compound A in crystalline state): 69 µg/mL (≈ 127 µM)
Solubility ([1]; pH 6.8, listed as Compound A in crystalline state): 15 µg/mL (≈ 27.5 µM)
Solubility (physchem; pH 1.2, simulated gastric fluid): ~9.9 µg/mL (≈ 18.2 µM)
Solubility (physchem; pH 6.8, aqueous buffer): ~9.8 µg/mL (≈ 18 µM)
SMILES: C[C@@H](O)C(=N)NS(=O)(=O)c1cc(C(=O)C(C(=O)c2cc(F)ccc2F)=C2Nc3ccccc3N2)ccc1F [Compound A, (2R)—N-({5-[3-(2,5-difluorophenyl)-2-(1,3-dihydro-2H-benzimidazole-2-ylidene)-3-oxopropanoyl]-2-fluorophenyl}sulfonyl)-2-hydroxypropane imide amide]

AUC0-24 h ratio to the suspension of Example 2 [2]: 1.00
Cmax ratio to the suspension of Example 2 [2]: 1.00
oral absorbability [2]: good oral absorbability
Cmax ([2]; plasma, suspension in 0.5% methylcellulose): 793 ± 165 ng/mL
AUC(0-t) ([2]; plasma, suspension in 0.5% methylcellulose, read-out: AUC0-24 hr): 4920 ± 1220 ng·h/mL
Maximum related substance ([3]; At the beginning of storage): 0.80%
Total amount of related substances ([3]; At the beginning of storage): 0.88%
significant increase in related substances ([3]; at least 70° C. for 9 days, 40° C., 75% RH for 1 month, or 25° C., 60% RH for 1 month): not observed
Maximum related substance [3, 5]: 0.77%
Maximum related substance, increased amount from the beginning of the storage [3, 5]: (−0.03) %
Total amount of related substances [3, 5]: 0.98%
Total amount of related substances, increased amount from the beginning of the storage [3, 5]: (0.10) %
Maximum related substance [3, 6]: 0.79%
Maximum related substance, increased amount from the beginning of the storage [3, 6]: (−0.01) %
Total amount of related substances [3, 6]: 0.99%
Total amount of related substances, increased amount from the beginning of the storage [3, 6]: (0.11) %
Maximum related substance [3, 7]: 0.79%
Maximum related substance, increased amount from the beginning of the storage [3, 7]: (−0.01) %
Total amount of related substances [3, 7]: 0.99%
Total amount of related substances, increased amount from the beginning of the storage [3, 7]: (0.11) %
Maximum related substance [3, 8]: 0.82%
Maximum related substance, increased amount from the beginning of the storage [3, 8]: (0.02) %
Total amount of related substances [3, 8]: 0.85%
Total amount of related substances, increased amount from the beginning of the storage [3, 8]: (−0.03) %
crystallinity after storage (powder X-ray diffraction) [4]: maintained the amorphous state alone
Solubility ([1]; pH 6.8, 0.10% Sodium lauryl sulfate, listed as Ex. 2): 326 µg/mL (≈ 599 µM)
Solubility ([1]; pH 6.8, listed as Ex. 2): 75 µg/mL (≈ 138 µM)
SMILES: C[C@@H](O)C(=N)NS(=O)(=O)c1cc(C(=O)C(C(=O)c2cc(F)ccc2F)=C2Nc3ccccc3N2)ccc1F [Example 2, (2R)—N-({5-[3-(2,5-difluorophenyl)-2-(1,3-dihydro-2H-benzimidazole-2-ylidene)-3-oxopropanoyl]-2-fluorophenyl}sulfonyl)-2-hydroxypropane imide amide]
